Test system: Bacillus cereus, Staphylococcus aureus, Pseudomonas aeruginosa, Escherichia coli, Aspergillus flavus, Chrysosporium keratinophilum
Experiment: agar plate disc-diffusion antimicrobial test
Format: cell-based
Settings: discs wetted with 10 μL of 10 mg/mL in DMSO; 37° C., 48 h, 72 h for fungi; gram positive and gram-negative bacteria and fungi
Protocol: The agar plate disc-diffusion method was applied. Sterilized filter papers (6 mm in diameter) were wetted with 10 μL of a solution of N′-(2-naphthoyloxy)-2-(benzo[d]oxazol-2-yl)acetimidamide (3) to be tested, containing 10 mg/mL in DMSO, and the discs were allowed to air dry. The discs were then placed onto the surface of agar plates (nutrient agar for bacteria and Sabouraud's dextrose agar for fungi) seeded with the test organism. Each plate contained 15 mL of the agar medium, previously seeded with 0.2 mL of the broth culture of each organism pregrown for 18 hours. The plates were incubated at 37° C. for 48 h, and 72 h for fungi. The inhibition zones were measured in mm. Discs impregnated with DMSO were used as a control, and its inhibition zone was subtracted from the tested compound actual inhibition zone. […] The antibacterial activity was screened against gram positive bacteria namely Bacillus cereus and Staphylococcus aureus and gram-negative bacterial strains namely Pseudomonas aeruginosa and Escherichia coli, while the antifungal activity was screened against Aspergillus flavus and Chrysosporium keratinophilum.

Structure (SMILES): N/C(Cc1nc2ccccc2o1)=N\OC(=O)c1ccc2ccccc2c1 [compound 3, N′-(2-naphthoyloxy)-2-(benzo[d]oxazol-2-yl)acetimidamide]
- antimicrobial activity (disc-diffusion inhibition zones): high antimicrobial activities
